Test results: patent US9751887B2, “Imidazo[1,2-b]pyridazine derivatives as kinase inhibitors” (Daiichi Sankyo Company, Limited, priority 2012, dated 2017)

Assays:
ROS1 [1] = molecular target: T1, ROS1 (Homo sapiens, UniProt P08922); test: ROS1 kinase inhibitory activity evaluation (mobility shift, EZ Reader II); assay type: biochemical; conditions: ROS1 25 pg/μL, FL-Peptide 22 substrate, three separate measurements
T1 construct: purchased Carna Biosciences 08-163
Experimental: Next, a substrate reaction solution was prepared. […] Then, the reaction stop solution was added thereto at a concentration of 40 μL/well. Substrate phosphorylation intensity was measured using EZ Reader II (Caliper Life Sciences).

ROS1 [2] = molecular target: T1, ROS1; test: ROS1 autophosphorylation inhibitory activity evaluation (ADP-Glo); assay type: biochemical; conditions: 200 nM inactive ROS1, ATP 1 mM, 25° C. 1.5 hours, ADP generated, four separate measurements
Experimental: Fifty mM HEPES (pH 7.5), 10 mM MgCl2, 0.01% Brij-58, and 2.5 mM DTT were mixed to prepare an enzymatic reaction solution. […] ATP (final concentration: 1 mM) was further added thereto at a concentration of 2.5 μL/well. The resulting plate was left standing at 25° C. for 1.5 hours to cause enzymatic reaction. After the completion of enzymatic reaction, ADP-Glo Reagent-1 (Promega, V9103) was added thereto at a concentration of 2.5 μL/well, and the plate was left standing at room temperature for 60 minutes. Then, ADP-Glo Reagent-2 (Promega) was added thereto at a concentration of 5 μL/well, and the plate was left standing at room temperature for 60 minutes. The amount of ADP generated by the autophosphorylation of ROS1 was measured using EnVision (PerkinElmer Japan). The amount of ADP generated in four separate measurements was defined as the autophosphorylation intensity of ROS1. IC50 values were calculated by curve fitting using GraphPad Prism version 4 (GraphPad software).

[3] = system: HCC78 cells having ROS1 fusion gene; test: HCC78 cell growth assay (CellTiter-Glo); assay type: cell-based; conditions: Homo sapiens, HCC78, 72 h, 72 hours culture, 2% FBS medium, luminescence, four separate measurements; read-out: growth inhibitory effect on HCC78 cells having ROS1 fusion gene IC50
Experimental: Each compound of the present invention was assayed for its cell growth inhibitory effect using HCC78 cells having ROS1 fusion gene.
The suspension was dispensed at a concentration of 100 μL/well to a 96-well culture plate for cell culture (SUMITOMO BAKELITE, Cat No MS-0096S) (hereinafter, referred to as an assay plate). […] In this context, the final concentration of DMSO was set to 0.4%. Then, the cells were cultured for 72 hours in a CO2 incubator.
CellTiter-Glo Luminescent Cell Viability Assay reagent (Promega, Cat No G7571) was dispensed at a concentration of 100 μL/well to the assay plate. The contents in each well were reacted at room temperature for 10 minutes while stirred using a plate mixer. […] The luminescence intensity of each well was measured using EnVision. The luminescence intensity of each well obtained in four separate measurements was defined as the number of cells. IC50 values were calculated by curve fitting using GraphPad Prism version 4.

T1 sequence (P08922 28-2347): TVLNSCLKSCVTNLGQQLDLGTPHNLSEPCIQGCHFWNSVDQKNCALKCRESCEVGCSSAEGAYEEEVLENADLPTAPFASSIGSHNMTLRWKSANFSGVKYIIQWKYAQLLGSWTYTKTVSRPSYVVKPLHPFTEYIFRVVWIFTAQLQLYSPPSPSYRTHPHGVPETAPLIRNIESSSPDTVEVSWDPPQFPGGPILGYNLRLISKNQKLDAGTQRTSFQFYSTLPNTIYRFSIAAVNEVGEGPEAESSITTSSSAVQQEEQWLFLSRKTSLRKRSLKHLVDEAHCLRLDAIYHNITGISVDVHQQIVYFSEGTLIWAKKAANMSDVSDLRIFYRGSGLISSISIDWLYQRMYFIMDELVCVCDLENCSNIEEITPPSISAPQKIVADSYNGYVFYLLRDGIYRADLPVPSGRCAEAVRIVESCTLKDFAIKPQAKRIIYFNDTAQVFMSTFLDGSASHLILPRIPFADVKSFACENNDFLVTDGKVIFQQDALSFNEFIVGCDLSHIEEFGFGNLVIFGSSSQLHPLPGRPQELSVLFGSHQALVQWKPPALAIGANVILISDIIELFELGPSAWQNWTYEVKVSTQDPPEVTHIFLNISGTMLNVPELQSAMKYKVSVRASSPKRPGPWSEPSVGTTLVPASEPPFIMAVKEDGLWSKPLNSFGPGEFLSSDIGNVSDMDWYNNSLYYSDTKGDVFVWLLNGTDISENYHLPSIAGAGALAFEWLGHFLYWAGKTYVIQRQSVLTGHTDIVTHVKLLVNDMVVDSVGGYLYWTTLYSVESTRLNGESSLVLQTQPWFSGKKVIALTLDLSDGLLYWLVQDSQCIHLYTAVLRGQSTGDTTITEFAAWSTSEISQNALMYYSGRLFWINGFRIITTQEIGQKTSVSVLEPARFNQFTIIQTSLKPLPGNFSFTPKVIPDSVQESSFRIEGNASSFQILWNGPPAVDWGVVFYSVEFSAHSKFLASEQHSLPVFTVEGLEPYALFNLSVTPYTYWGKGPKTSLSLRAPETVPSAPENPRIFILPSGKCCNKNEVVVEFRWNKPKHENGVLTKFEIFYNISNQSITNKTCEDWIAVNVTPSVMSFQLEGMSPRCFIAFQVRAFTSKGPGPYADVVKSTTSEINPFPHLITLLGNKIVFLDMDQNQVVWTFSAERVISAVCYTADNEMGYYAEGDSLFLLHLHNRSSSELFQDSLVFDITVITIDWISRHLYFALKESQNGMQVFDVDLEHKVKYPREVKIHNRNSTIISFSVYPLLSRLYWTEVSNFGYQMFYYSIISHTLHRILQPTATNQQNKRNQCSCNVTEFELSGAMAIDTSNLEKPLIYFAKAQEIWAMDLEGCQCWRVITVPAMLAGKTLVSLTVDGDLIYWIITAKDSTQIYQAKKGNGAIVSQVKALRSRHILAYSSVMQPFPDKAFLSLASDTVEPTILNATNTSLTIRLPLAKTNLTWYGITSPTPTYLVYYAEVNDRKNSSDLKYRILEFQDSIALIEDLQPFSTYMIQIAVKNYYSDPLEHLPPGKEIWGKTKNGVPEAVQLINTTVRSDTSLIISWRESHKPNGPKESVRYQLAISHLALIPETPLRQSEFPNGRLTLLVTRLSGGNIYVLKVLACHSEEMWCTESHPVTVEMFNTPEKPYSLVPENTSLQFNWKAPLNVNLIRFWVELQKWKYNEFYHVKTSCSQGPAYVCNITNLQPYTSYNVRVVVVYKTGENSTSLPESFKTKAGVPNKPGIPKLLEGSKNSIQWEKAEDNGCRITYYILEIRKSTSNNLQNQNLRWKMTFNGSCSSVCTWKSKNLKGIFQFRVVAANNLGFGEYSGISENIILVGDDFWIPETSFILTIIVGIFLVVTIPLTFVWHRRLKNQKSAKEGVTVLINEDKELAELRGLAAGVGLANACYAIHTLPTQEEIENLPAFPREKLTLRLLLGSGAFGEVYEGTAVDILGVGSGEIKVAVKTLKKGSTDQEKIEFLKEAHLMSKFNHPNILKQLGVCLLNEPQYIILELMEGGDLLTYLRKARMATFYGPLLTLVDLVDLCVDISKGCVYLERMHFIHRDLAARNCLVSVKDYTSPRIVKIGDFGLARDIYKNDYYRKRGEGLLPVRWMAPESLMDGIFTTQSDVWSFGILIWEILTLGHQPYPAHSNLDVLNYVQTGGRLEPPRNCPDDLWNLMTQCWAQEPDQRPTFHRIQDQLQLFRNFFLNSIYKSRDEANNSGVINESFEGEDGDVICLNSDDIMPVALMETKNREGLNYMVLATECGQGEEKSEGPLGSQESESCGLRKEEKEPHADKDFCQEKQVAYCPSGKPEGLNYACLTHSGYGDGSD

| IC50 (ROS1 [1]) | IC50 (ROS1 [2]) | IC50 [3] | Compound |
| --- | --- | --- | --- |
| 10 to 60 nM | 100 to 150 nM | 100 to 600 nM | CC(Oc1ccc2ncc(-c3ccc(N4C[C@@H](N)CC4=O)cc3)n2n1)c1cn(C(F)F)nn1 (stereo partly drawn) [Example 115, (4S)-4-Amino-1-[4-[6-[1-[1-(difluoromethyl)triazol-4-yl]ethoxy]imidazo[1,2-b]pyridazin-3-yl]phenyl]pyrrolidin-2-one] |
| 1 to 10 nM | < 20 nM | 20 to 100 nM | CNCCOc1cccc(-c2cnc3ccc(N[C@H](C)c4cccc(F)c4)nn23)c1 [Example 58, N-[(1R)-1-(3-Fluorophenyl)ethyl]-3-[3-[2-(methylamino)ethoxy]phenyl]imidazo[1,2-b]pyridazin-6-amine] |
| 1 to 10 nM | 100 to 150 nM | 100 to 600 nM | NCC1CC(=O)N(c2ccc(-c3cnc4ccc(OCc5cccc(F)c5)nn34)cc2)C1 (stereo not drawn) [Example 74, 4-(Aminomethyl)-1-[4-[6-[(3-fluorophenyl)methoxy]imidazo[1,2-b]pyridazin-3-yl]phenyl]pyrrolidin-2-one] |
| < 1 nM | < 20 nM | < 20 nM | NC1CC(=O)N(c2ccc(-c3cnc4ccc(NCc5ccccc5)nn34)cc2)C1 (stereo not drawn) [Example 72, 4-Amino-1-[4-[6-(benzylamino)imidazo[1,2-b]pyridazin-3-yl]phenyl]pyrrolidin-2-one] |
| < 1 nM | < 20 nM | 20 to 100 nM | C[C@@H](Nc1ccc2ncc(-c3cccc(OC[C@@H]4CCCN4)c3)n2n1)c1cccc(F)c1 [Example 50, N-[(1R)-1-(3-Fluorophenyl)ethyl]-3-[3-[[(2S)-pyrrolidin-2-yl]methoxy]phenyl]imidazo[1,2-b]pyridazin-6-amine] |
| < 1 nM | < 20 nM | < 20 nM | C[C@H](O)[C@@H](N)COc1ccc(-c2cnc3ccc(N[C@H](C)c4cccc(F)c4)nn23)cc1 [Example 55, (2S,3S)-3-Amino-4-[4-[6-[[(1R)-1-(3-fluorophenyl)ethyl]amino]imidazo[1,2-b]pyridazin-3-yl]phenoxy]butan-2-ol] |
| 1 to 10 nM | 20 to 100 nM | 100 to 600 nM | C[C@@H](Oc1ccc2ncc(-c3ccc(OCC4CCNCC4)cc3)n2n1)c1cccc(F)c1 [Example 17, 6-[(1R)-1-(3-Fluorophenyl)ethoxy]-3-[4-(4-piperidylmethoxy)phenyl]imidazo[1,2-b]pyridazine] |
| < 1 nM | 20 to 100 nM | 20 to 100 nM | C[C@@H](Nc1ccc2ncc(-c3ccc(OCCNC4CC4)cc3)n2n1)c1cccc(F)c1 [Example 37, 3-[4-[2-(Cyclopropylamino)ethoxy]phenyl]-N-[(1R)-1-(3-fluorophenyl)ethyl]imidazo[1,2-b]pyridazin-6-amine] |
| < 1 nM | < 20 nM | < 20 nM | C[C@@H](Nc1ccc2ncc(-c3ccc(OCCN(C)C)cc3)n2n1)c1cccc(F)c1 [Example 69, 3-[4-(2-Dimethylaminoethoxy)phenyl]-N-[(1R)-1-(3-fluorophenyl)ethyl]imidazo[1,2-b]pyridazin-6-amine] |
| 1 to 10 nM | < 20 nM | 20 to 100 nM | C[C@@H](Nc1ccc2ncc(-c3cccc(OCCN)c3)n2n1)c1cccc(F)c1 [Example 67, 3-[3-(2-Aminoethoxy)phenyl]-N-[(1R)-1-(3-fluorophenyl)ethyl]imidazo[1,2-b]pyridazin-6-amine] |
| 1 to 10 nM | < 20 nM | 20 to 100 nM | CCN(Cc1cccc(F)c1)c1ccc2ncc(-c3ccc(N4C[C@@H](N)CC4=O)cc3)n2n1 [Example 100] |
| < 1 nM | < 20 nM | < 20 nM | C[C@@H](Nc1ccc2ncc(-c3ccc(N4C[C@@H](N)CC4=O)cc3F)n2n1)c1cccc(F)c1 [Example 93, (4S)-4-Amino-1-[3-fluoro-4-[6-[[(1R)-1-(3-fluorophenyl)ethyl]amino]imidazo[1,2-b]pyridazin-3-yl]phenyl]pyrrolidin-2-one] |
| 1 to 10 nM | 20 to 100 nM | 20 to 100 nM | CN(Cc1cccc(C#N)c1)c1ccc2ncc(-c3ccc(N4C[C@@H](N)CC4=O)cc3)n2n1 [Example 121, 3-[[[3-[4-[(4S)-4-Amino-2-oxopyrrolidin-1-yl]phenyl]imidazo[1,2-b]pyridazin-6-yl]-methylamino]methyl]benzonitrile] |
| 1 to 10 nM | < 20 nM | < 20 nM | CC(Oc1ccc2ncc(-c3ccc(N4C[C@@H](N)CC4=O)cc3)n2n1)c1cc(Cl)n(C)n1 (stereo partly drawn) [Example 113, (4S)-4-Amino-1-[4-[6-[1-(5-chloro-1-methylpyrazol-3-yl)ethoxy]imidazo[1,2-b]pyridazin-3-yl]phenyl]pyrrolidin-2-one] |
| < 1 nM | < 20 nM | < 20 nM | C[C@@H](Nc1ccc2ncc(-c3ccc(OC[C@H](N)CO)cc3)n2n1)c1cccc(F)c1 [Example 59, (2R)-2-Amino-3-[4-[6-[[(1R)-1-(3-fluorophenyl)ethyl]amino]imidazo[1,2-b]pyridazin-3-yl]phenoxy]propan-1-ol] |
| 1 to 10 nM | < 20 nM | 20 to 100 nM | C[C@@H](Nc1ccc2ncc(-c3ccc(O[C@H]4C[C@H](N)C4)cc3)n2n1)c1cccc(F)c1 [Example 51] |
| 1 to 10 nM | 20 to 100 nM | 100 to 600 nM | NCCOc1ccc(-c2cnc3ccc(OCc4cccc(F)c4)nn23)cc1 [Example 14, 2-[4-[6-[(3-Fluorophenyl)methoxy]imidazo[1,2-b]pyridazin-3-yl]phenoxy]ethanamine] |
| 10 to 60 nM | 100 to 150 nM | 20 to 100 nM | C[C@@H](Oc1ccc2ncc(-c3ccc(N4C[C@@H](N)CC4=O)c(F)c3)n2n1)c1cncc(F)c1 [Example 109, (4S)-4-Amino-1-[2-fluoro-4-[6-[(1R)-1-(5-fluoro-3-pyridyl)ethoxy]imidazo[1,2-b]pyridazin-3-yl]phenyl]pyrrolidin-2-one] |
| 1 to 10 nM | < 20 nM | 20 to 100 nM | NC1CC(=O)N(c2ccc(-c3cnc4ccc(OCc5cccc(F)c5)nn34)cc2)C1 (stereo not drawn) [Example 73, 4-Amino-1-[4-[6-[(3-fluorophenyl)methoxy]imidazo[1,2-b]pyridazin-3-yl]phenyl]pyrrolidin-2-one] |
| 1 to 10 nM | < 20 nM | 20 to 100 nM | C[C@@H](Oc1ccc2ncc(-c3ccc(N4C[C@@H](N)CC4=O)cc3F)n2n1)c1cncc(F)c1 [Example 110, (4S)-4-Amino-1-[3-fluoro-4-[6-[(1R)-1-(5-fluoro-3-pyridyl)ethoxy]imidazo[1,2-b]pyridazin-3-yl]phenyl]pyrrolidin-2-one] |
| 1 to 10 nM | 20 to 100 nM | 20 to 100 nM | c1ccc(CNc2ccc3ncc(-c4ccc(OCC[C@@H]5CCCN5)cc4)n3n2)cc1 [Example 6, N-Benzyl-3-[4-[2-[(2S)-pyrrolidin-2-yl]ethoxy]phenyl]imidazo[1,2-b]pyridazin-6-amine] |
| 1 to 10 nM | 20 to 100 nM | 20 to 100 nM | CN(Cc1cccc(F)c1)c1ccc2ncc(-c3ccc(N4C[C@@H](N)CC4=O)c(F)c3)n2n1 [Example 83, (4S)-4-Amino-1-[2-fluoro-4-[6-[(3-fluorophenyl)methyl-methylamino]imidazo[1,2-b]pyridazin-3-yl]phenyl]pyrrolidin-2-one] |
| < 1 nM | < 20 nM | < 20 nM | C[C@H](N)COc1ccc(-c2cnc3ccc(N[C@H](C)c4cccc(F)c4)nn23)cn1 [Example 63, 3-[6-[(2S)-2-Aminopropoxy]-3-pyridyl]-N-[(1R)-1-(3-fluorophenyl)ethyl]imidazo[1,2-b]pyridazin-6-amine] |

| Compound | IC50 (ROS1 [1]) | IC50 (ROS1 [2]) | IC50 [3] |
| --- | --- | --- | --- |
| C[C@@H](Nc1ccc2ncc(-c3ccc(O[C@H]4CCC[C@H]4N)cc3)n2n1)c1cccc(F)c1 [Example 40, 3-[4-[(1S,2R)-2-Aminocyclopentoxy]phenyl]-N-[(1R)-1-(3-fluorophenyl)ethyl]imidazo[1,2-b]pyridazin-6-amine] | < 1 nM | < 20 nM | < 20 nM |
| C[C@@H](Nc1ccc2ncc(-c3ccc(O[C@@H]4CCC[C@@H]4N)cc3)n2n1)c1cccc(F)c1 [Example 36, 3-[4-[(1R,2S)-2-Aminocyclopentoxy]phenyl]-N-[(1R)-1-(3-fluorophenyl)ethyl]imidazo[1,2-b]pyridazin-6-amine] | < 1 nM | < 20 nM | 100 to 600 nM |
